In paper PMC11116084 (Journal of Applied Glycoscience, 2024):

Test system: ALMAN (Allium cepa α-mannosidase)
Assay: p-nitrophenol release, absorption at […] nm
Format: biochemical
Conditions: 20 mM sodium acetate pH 4.0, 40 °C (standard assay)

- Km: 1690 µM
SMILES: O=[N+]([O-])c1ccc(O[C@H]2O[C@H](CO)[C@@H](O)[C@H](O)[C@@H]2O)cc1 [pNP-α-Man]
